Source: patent publication US9302999B2, “Substituted triazoles as herbicides” (E. I. DU PONT DE NEMOURS AND COMPANY, priority 2012, dated 2016)

Columns and labels:
Format in all cases: in vivo
[1] = tested on: crabgrass, large (large crabgrass, Digitaria sanguinalis); assay: Test F pre-/postemergence: crabgrass, large; conditions: Preemergence
From the text: (§1) Seeds of plant species selected from corn (Zea mays), soybean (Glycine max), velvetleaf (Abutilon theophrasti), lambsquarters (Chenopodium album), poinsettia, wild (wild poinsettia, Euphorbia heterophylla), pigweed, palmer (palmer pigweed, Amaranthus palmeri), waterhemp (common waterhemp, Amaranthus rudis), surinam grass (Brachiaria decumbens), crabgrass, Brazil (Brazilian crabgrass, Digitaria horizontalis), panicum, fall (fall panicum Panicum dichotomiflorum), crabgrass, large (large crabgrass, Digitaria sanguinalis), foxtail, giant (giant foxtail, Setaria faberii), foxtail, green (green foxtail Setaria viridis), goosegrass (Eleusine indica), ragweed (common ragweed, Ambrosia elatior), barnyardgrass (Echinochloa crus-galli), sandbur (southern sandbur, Cenchrus echinatus), arrowleaf sida (Sida rhombifolia), ryegrass, Italian (Italian ryegrass, Lolium multiflorum), dayflower, VA (Virginia (VA) dayflower, Commelina virginica), field bindweed (Convolvulus arvensis), cocklebur (common cocklebur, Xanthium strumarium), morningglory (Ipomoea coccinea), nightshade (eastern black nightshade, Solanum ptycanthum), kochia (Kochia scoparia), nutsedge, yellow (yellow nutsedge, Cyperus esculentus), johnsongrass (Sorghum halepense), smartweed (ladysthumb smartweed, Polygonum persicaria), and beggarticks (hairy beggarticks, Bidens pilosa), were planted into a silt loam soil and treated preemergence with test chemicals formulated in a non-phytotoxic solvent mixture which included a surfactant. At the same time, plants selected from these crop and weed species and also pigweed (Amaranthus retroflexus), waterhemp_RES1 (ALS/Triazine resistant common waterhemp, Amaranthus rudis) and waterhemp_RES2 (ALS/HPPD resistant common waterhemp, Amaranthus rudis) were planted in pots containing a planting medium comprising spaghnum peat moss, vermiculite, wetting agent and starter nutrients treated with postemergence applications of some of the test chemicals formulated in the same manner. Plants ranged in height from 2 to 18 cm for postemergence treatments (1- to 4-leaf stage).
(§2) Treated plants and controls were maintained in a greenhouse for 14 to 21 days, after which time all species were compared to controls and visually evaluated. Plant response ratings, summarized in Table E, are based on a scale of 0 to 100 where 0 is no effect and 100 is complete control. A dash (-) response means no test result.

[2] = tested on: johnsongrass (Sorghum halepense); assay: Test F pre-/postemergence: johnsongrass; conditions: Preemergence
From the text: as §1, §2

[3] = tested on: ragweed (common ragweed, Ambrosia elatior); assay: Test F pre-/postemergence: ragweed; conditions: Preemergence
From the text: as §1, §2

[4] = tested on: surinam grass (Brachiaria decumbens); assay: Test F pre-/postemergence: surinam grass; conditions: Preemergence
From the text: as §1, §2

[5] = tested on: deadnettle (henbit deadnettle, Lamium amplexicaule); assay: Test D pre-/postemergence: deadnettle
In short: (§3)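 Visual 0–100 rating versus untreated controls (0 no effect, 100 complete control), taken 14 to 21 days after treatment in a controlled growth environment. Preemergence: silt loam soil. Postemergence: peat moss/vermiculite medium, plants 2 to 18 cm, 1- to 4-leaf stage. Solvent mixture with surfactant.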

[6] = tested on: bromegrass, downy (downy bromegrass, Bromus tectorum); assay: Test D pre-/postemergence: bromegrass, downy
In short: as §3

[7] = tested on: chamomile (scentless chamomile, Matricaria inodora); assay: Test D pre-/postemergence: chamomile; conditions: Postemergence
In short: as §3

rice (Oryza sativa) = assay: Test C flooded paddy test: rice; conditions: scale 0 to 100 (0 no effect, 100 complete control)
In short: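 Plants at 2-leaf stage in pots flooded 3 cm above soil; compounds applied directly into the paddy water, depth maintained. Visual rating against controls after 13–15 days in greenhouse, scale 0 (no effect) to 100 (complete control).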

[8] = 16 g ai/ha, scale 0 to 100, 0 no effect, 100 complete control
[9] = 31 g ai/ha, scale 0 to 100, 0 no effect, 100 complete control
[10] = Postemergence, 31 g ai/ha, scale 0 to 100 (0 no effect, 100 complete control)
[11] = Postemergence, 62 g ai/ha, scale 0 to 100 (0 no effect, 100 complete control)
[12] = Postemergence, 125 g ai/ha, scale 0 to 100, 0 no effect, 100 complete control
[13] = Postemergence, 250 g ai/ha, scale 0 to 100 (0 no effect, 100 complete control)
[14] = Postemergence, 16 g ai/ha, scale 0 to 100
[15] = Preemergence, 31 g ai/ha, scale 0 to 100, 0 no effect, 100 complete control
[16] = Preemergence, 62 g ai/ha, scale 0 to 100
[17] = Preemergence, 125 g ai/ha, scale 0 to 100
[18] = Preemergence, 250 g ai/ha, scale 0 to 100

COc1nn(-c2cccc(F)c2)nc1Cc1ccnc(C(F)(F)F)c1 [Compound 139]
Plant response rating, Crabgrass, Large [1, 8]: 30 | Plant response rating, Crabgrass, Large [1, 9]: 95 | Plant response rating, Crabgrass, Large ([1]; 62 g ai/ha, scale 0 to 100): 95 | Plant response rating, Crabgrass, Large ([1]; 125 g ai/ha, scale 0 to 100): 100 | Plant response rating, Crabgrass, Large ([1]; 250 g ai/ha, scale 0 to 100): 100 | Plant response rating, Johnsongrass [2, 8]: 0 | Plant response rating, Johnsongrass [2, 9]: 75 | Plant response rating, Johnsongrass ([2]; 62 g ai/ha, scale 0 to 100): 90 | Plant response rating, Johnsongrass ([2]; 125 g ai/ha, scale 0 to 100): 98 | Plant response rating, Johnsongrass ([2]; 250 g ai/ha, scale 0 to 100): 100 | Plant response rating, Ragweed [3, 8]: 0 | Plant response rating, Ragweed [3, 9]: 0 | Plant response rating, Ragweed ([3]; 125 g ai/ha, scale 0 to 100): 0 | Plant response rating, Ragweed ([3]; 250 g ai/ha, scale 0 to 100): 0 | Plant response rating, Surinam Grass [4, 8]: 0 | Plant response rating, Surinam Grass [4, 9]: 0 | Plant response rating, Surinam Grass ([4]; 125 g ai/ha, scale 0 to 100): 75 | Plant response rating, Surinam Grass ([4]; 250 g ai/ha, scale 0 to 100): 75

Cc1nn(-c2ccc(F)cc2F)nc1Oc1ccnc(C(F)(F)F)c1 [Compound 146]
Plant response rating, Crabgrass, Large [1, 8]: 0 | Plant response rating, Crabgrass, Large [1, 9]: 75 | Plant response rating, Crabgrass, Large ([1]; 62 g ai/ha, scale 0 to 100): 98 | Plant response rating, Crabgrass, Large ([1]; 125 g ai/ha, scale 0 to 100): 98 | Plant response rating, Crabgrass, Large ([1]; 250 g ai/ha, scale 0 to 100): 100 | Plant response rating, Johnsongrass [2, 8]: 0 | Plant response rating, Johnsongrass [2, 9]: 50 | Plant response rating, Johnsongrass ([2]; 62 g ai/ha, scale 0 to 100): 60 | Plant response rating, Johnsongrass ([2]; 125 g ai/ha, scale 0 to 100): 70 | Plant response rating, Johnsongrass ([2]; 250 g ai/ha, scale 0 to 100): 100 | Plant response rating, Ragweed [3, 8]: 0 | Plant response rating, Ragweed [3, 9]: 0 | Plant response rating, Ragweed ([3]; 125 g ai/ha, scale 0 to 100): 0 | Plant response rating, Ragweed ([3]; 250 g ai/ha, scale 0 to 100): 25 | Plant response rating, Surinam Grass [4, 8]: 0 | Plant response rating, Surinam Grass [4, 9]: 0 | Plant response rating, Surinam Grass ([4]; 125 g ai/ha, scale 0 to 100): 20 | Plant response rating, Surinam Grass ([4]; 250 g ai/ha, scale 0 to 100): 35

CCc1nn(-c2ccc(F)c(F)c2)nc1Oc1ccnc(C(F)(F)F)c1 [Compound 171]
Plant response rating, Crabgrass, Large [1, 8]: 75 | Plant response rating, Crabgrass, Large [1, 9]: 98 | Plant response rating, Crabgrass, Large ([1]; 62 g ai/ha, scale 0 to 100): 98 | Plant response rating, Crabgrass, Large ([1]; 125 g ai/ha, scale 0 to 100): 100 | Plant response rating, Crabgrass, Large ([1]; 250 g ai/ha, scale 0 to 100): 100 | Plant response rating, Johnsongrass [2, 8]: 0 | Plant response rating, Johnsongrass [2, 9]: 0 | Plant response rating, Johnsongrass ([2]; 62 g ai/ha, scale 0 to 100): 10 | Plant response rating, Johnsongrass ([2]; 125 g ai/ha, scale 0 to 100): 65 | Plant response rating, Johnsongrass ([2]; 250 g ai/ha, scale 0 to 100): 75 | Plant response rating, Surinam Grass [4, 8]: 0 | Plant response rating, Surinam Grass [4, 9]: 0 | Plant response rating, Surinam Grass ([4]; 125 g ai/ha, scale 0 to 100): 10 | Plant response rating, Surinam Grass ([4]; 250 g ai/ha, scale 0 to 100): 30

CCc1nn(-c2ccc(C(F)(F)F)cc2)nc1Oc1ccnc(C(F)(F)F)c1 [Compound 169]
Plant response rating, Crabgrass, Large [1, 8]: 98 | Plant response rating, Crabgrass, Large [1, 9]: 98 | Plant response rating, Crabgrass, Large ([1]; 62 g ai/ha, scale 0 to 100): 100 | Plant response rating, Crabgrass, Large ([1]; 125 g ai/ha, scale 0 to 100): 100 | Plant response rating, Crabgrass, Large ([1]; 250 g ai/ha, scale 0 to 100): 100 | Plant response rating, Johnsongrass [2, 8]: 0 | Plant response rating, Johnsongrass [2, 9]: 0 | Plant response rating, Johnsongrass ([2]; 62 g ai/ha, scale 0 to 100): 20 | Plant response rating, Johnsongrass ([2]; 125 g ai/ha, scale 0 to 100): 50 | Plant response rating, Johnsongrass ([2]; 250 g ai/ha, scale 0 to 100): 80 | Plant response rating, Ragweed [3, 8]: 0 | Plant response rating, Ragweed [3, 9]: 0 | Plant response rating, Ragweed ([3]; 125 g ai/ha, scale 0 to 100): 60 | Plant response rating, Ragweed ([3]; 250 g ai/ha, scale 0 to 100): 100 | Plant response rating, Surinam Grass [4, 8]: 0 | Plant response rating, Surinam Grass [4, 9]: 65 | Plant response rating, Surinam Grass ([4]; 125 g ai/ha, scale 0 to 100): 75 | Plant response rating, Surinam Grass ([4]; 250 g ai/ha, scale 0 to 100): 100

CCCc1nn(-c2ccc(F)c(F)c2)nc1Oc1ccnc(C(F)(F)F)c1 [Compound 172]
Plant response rating, Crabgrass, Large [1, 9]: 100 | Plant response rating, Crabgrass, Large ([1]; 125 g ai/ha, scale 0 to 100): 100 | Plant response rating, Crabgrass, Large ([1]; 250 g ai/ha, scale 0 to 100): 100 | Plant response rating, Johnsongrass [2, 9]: 50 | Plant response rating, Johnsongrass ([2]; 125 g ai/ha, scale 0 to 100): 75 | Plant response rating, Johnsongrass ([2]; 250 g ai/ha, scale 0 to 100): 100 | Plant response rating, Surinam Grass [4, 9]: 20 | Plant response rating, Surinam Grass ([4]; 125 g ai/ha, scale 0 to 100): 35 | Plant response rating, Surinam Grass ([4]; 250 g ai/ha, scale 0 to 100): 98

CCc1nn(-c2ccc(F)cc2)nc1Cc1ccnc(C(F)(F)F)c1 [Compound 154]
Plant response rating, Crabgrass, Large [1, 8]: 50 | Plant response rating, Crabgrass, Large [1, 9]: 98 | Plant response rating, Crabgrass, Large ([1]; 62 g ai/ha, scale 0 to 100): 100 | Plant response rating, Crabgrass, Large ([1]; 125 g ai/ha, scale 0 to 100): 100 | Plant response rating, Crabgrass, Large ([1]; 250 g ai/ha, scale 0 to 100): 100 | Plant response rating, Johnsongrass [2, 8]: 0 | Plant response rating, Johnsongrass [2, 9]: 20 | Plant response rating, Johnsongrass ([2]; 62 g ai/ha, scale 0 to 100): 25 | Plant response rating, Johnsongrass ([2]; 125 g ai/ha, scale 0 to 100): 50 | Plant response rating, Johnsongrass ([2]; 250 g ai/ha, scale 0 to 100): 98 | Plant response rating, Ragweed [3, 8]: 0 | Plant response rating, Ragweed [3, 9]: 0 | Plant response rating, Ragweed ([3]; 125 g ai/ha, scale 0 to 100): 0 | Plant response rating, Ragweed ([3]; 250 g ai/ha, scale 0 to 100): 40 | Plant response rating, Surinam Grass [4, 8]: 0 | Plant response rating, Surinam Grass [4, 9]: 10 | Plant response rating, Surinam Grass ([4]; 125 g ai/ha, scale 0 to 100): 70 | Plant response rating, Surinam Grass ([4]; 250 g ai/ha, scale 0 to 100): 90

Cc1nn(-c2ccc(C(F)(F)F)cn2)nc1Cc1cccc(C(F)(F)F)c1 [Compound 106]
Plant response rating: Deadnettle [5, 10]: 30 | Plant response rating: Deadnettle [5, 11]: 40 | Plant response rating: Deadnettle [5, 12]: 60 | Plant response rating: Deadnettle [5, 13]: 80 | Plant response rating, Deadnettle [5, 14]: 20 | Plant response rating, Deadnettle [5, 15]: 0 | Plant response rating, Deadnettle [5, 16]: 0 | Plant response rating, Deadnettle [5, 17]: 0 | Plant response rating, Deadnettle [5, 18]: 0 | Plant response rating: Bromegrass, Downy [6, 10]: 0 | Plant response rating: Bromegrass, Downy [6, 11]: 10 | Plant response rating: Bromegrass, Downy [6, 12]: 15 | Plant response rating: Bromegrass, Downy [6, 13]: 15 | Plant response rating, Bromegrass, Downy [6, 14]: 0 | Plant response rating, Bromegrass, Downy [6, 15]: 0 | Plant response rating, Bromegrass, Downy [6, 16]: 0 | Plant response rating, Bromegrass, Downy [6, 17]: 0 | Plant response rating, Bromegrass, Downy [6, 18]: 0 | Plant response rating: Chamomile ([7]; 31 g ai/ha, scale 0 to 100 (0 no effect, 100 complete control)): 0 | Plant response rating: Chamomile ([7]; 62 g ai/ha, scale 0 to 100 (0 no effect, 100 complete control)): 0 | Plant response rating: Chamomile ([7]; 125 g ai/ha, scale 0 to 100, 0 no effect, 100 complete control): 0 | Plant response rating: Chamomile ([7]; 250 g ai/ha, scale 0 to 100 (0 no effect, 100 complete control)): 25 | Plant response rating, Chamomile ([7]; 16 g ai/ha, scale 0 to 100): 0 | Plant response rating, Rice (rice (Oryza sativa); Flood (flooded paddy test), 125 g ai/ha, visual rating after 13 to 15 days): 25 | Plant response rating, Rice (rice (Oryza sativa); Flood (flooded paddy test), 250 g ai/ha, visual rating after 13 to 15 days): 30 | Plant response rating, Rice (rice (Oryza sativa); Flood, 31 g ai/ha): 0 | Plant response rating, Rice (rice (Oryza sativa); Flood, 62 g ai/ha): 0
